The values below come from paper PMC2346451 (PLoS ONE, 2008).

Series [1] addresses T1, rat TRPV1 tyrosine to alanine point mutant at residue 511 (Rattus norvegicus, UniProt O35433, Y511A).
T1 construct: expressed in transfected cells; host or cells: HEK-293T (inferred from the general methods)
Nature of the series: Patch clamp of capsaicin-insensitive rat TRPV1 point mutant. The note with it: data not shown. In kind it is cell-based.

The test system of series [2] is chicken rat TRPV1 chimera (crcTRPV1, CRC V2–V4). Nature of the series: Whole-cell patch clamp of chicken rat TRPV1 chimera in HEK-293T cells. In kind it is cell-based. The following applies: n = 6. The procedure:
(§1) Transformed human embryonic kidney-293 (HEK-293T) cells were grown in Dulbecco's modified Eagle's medium (DMEM)+F-12 supplemented with 10% fetal calf serum, and 1% penicillin/streptomycin in 5% CO2 at 37°C. Cells grown to 90% confluence in 35 mm Petri dishes were transiently transfected with plasmid DNA encoding a TRP channel construct (1 µg). Rat TRPV1 (rTRPV1) was cloned into an enhanced green fluorescent protein-containing vector (pTracer-CMV2; Invitrogen, Carlsbad, CA). Chicken TRPV1 (cTRPV1), the chicken rat TRPV1 chimera (crcTRPV1), rat TRPV2 (rTRPV2), mouse TRPV3 (mTRPV3), mouse TRPV4 (mTRPV4), rat TRPM8 (rTRPM8), and rat TRPA1 (rTRPA1), were cloned into pcDNA3 and co-transfected with enhanced green fluorescent protein (0.1 µg) to follow expression. The cTRPV1 and crcTRPV1 clones were kindly provided by Dr. David Julius. Recordings were carried out 24–36 hours after transfection. Cells were split via trypsin EDTA, plated on glass coverslips at 5–10% confluence, and used 2–3 hours later.
Electrophysiological experiments were performed using the whole-cell patch-clamp technique at room temperature. […]
Recordings were obtained using an Axopatch 200B amplifier, Digidata 1322A analog-to-digital converter, and pClamp 8.01 software (Molecular Devices, Union City, CA). […] Cell capacitance was measured for each cell, and access resistance compensated to ∼80%. […]
(In patch-clamp work, channel activity is measured electrically.)

Another series deals with rat TRPA1 (rTRPA1) (Rattus norvegicus, UniProt Q6RI86). As to the kind of experiment: Whole-cell patch clamp of rat TRPA1 expressed in HEK-293T cells. In kind it is cell-based. How it is done:
as §1
(§2) Electrophysiological experiments were performed using the whole-cell patch-clamp technique at room temperature. Modified Ringer's solution with low chloride and nominal calcium contained (in mM): 130 sodium hydroxide, 5 potassium chloride, 1 magnesium chloride, 10 sodium 4-(2-hydroxyethyl)-1-piperazineethanesulfonic acid, 10 2-(N-morpholino)ethanesulfonic acid, and 20 glucose (pH 7.4; 310 milli-osmolar). […] 2 mM calcium chloride was included in the external solution where noted. To activate TRPV1, the modified Ringer's solution was made at pH 5 (low pH solution) and the chloride concentration was kept to a minimum to prevent contamination of the TRPV1 currents with acid-activated chloride currents. For recordings from heterologously expressing cells, the internal pipette solution contained (in mM): 125 cesium-Methanesulfonate, 10 cesium (1.2-bis(o-aminophenoxy)ethane-N,N,N',N'-tetraacetic acid, 8 sodium chloride, 4 magnesium adenosine triphosphate, and 10 HEPES (pH 7.2; 290 mOSM; nominal free calcium concentrations). For TRPA1 and dorsal root ganglion recordings, the internal pipette solution contained (in mM): 110 cesium-Methanesulfonate, 0.5 cesium4BAPTA, 8 sodium chloride, 0.2 calcium chloride, 4 magnesium-ATP, 4 sodium-GTP, and 10 4-(2-hydroxyethyl)-1-piperazineethanesulfonic acid (pH 7.2; 290 mOSM; 100 nM free calcium internal). MaxChelator was used to calculate the free calcium concentration (http://www.stanford.edu/cpatton/maxc.html).
(§3) Recordings were obtained using an Axopatch 200B amplifier, Digidata 1322A analog-to-digital converter, and pClamp 8.01 software (Molecular Devices, Union City, CA). Data were low-pass filtered at 2 kHz and digitized at 5 kHz. Borosilicate glass pipettes (World Precision Instruments, Sarasota, FL) were typically 3 MΩ pipette resistance after fire polishing. Cell capacitance was measured for each cell, and access resistance compensated to ∼80%. Recordings were begun ∼5 minutes after initial rupture to ensure initial steady state conditions. Current-voltage (I-V) relations were obtained using a ramp protocol. Voltage ramps (400 ms) from −100 to +40 or +100 mV were applied every 1–2 seconds and the holding potential was either −70 mV or 0 mV (see Figure Legends). A 40 ms step was added at the beginning and end of the ramp (i.e. at −100 mV, +40 mV or +100 mV). Liquid junction potentials were not corrected.
The dose response curves were fit with the Hill equation, where [drawing 8] and [A] is the concentration of agonist or blocker, N is the Hill coefficient, and KD is the [A] for Imeasured/Imax = 0.5. The term apparent dissociation constant is used in place of the half concentration of excitation and inhibition. […] Averaged data are presented as mean±standard error (S.E.) throughout. Statistical analysis included paired and unpaired Student's t-test comparisons of the data; p values are reported in the text.

The next series has as its target T2, mouse TRPV4 (mTRPV4) (Mus musculus, UniProt Q9EPK8).
T2 construct: expressed in transfected cells; host or cells: HEK-293T
Nature of the series: Whole-cell patch clamp of mouse TRPV4 expressed in HEK-293T cells. Format: cell-based. Details: key to Agonist efficacy: Ø - not activated. The procedure: as §1, §2
as §3, with “corrected. […]” for “corrected.”

For series [3] the following is noted: no reference given; cited from earlier work.
Series [4] concerns dorsal root ganglion neurons. As to the kind of experiment: Fura-2 calcium imaging of dorsal root ganglion neurons. In kind it is cell-based, rat. The note with it: 1 mM citral; freshly isolated neurons. From the text: Dorsal root ganglion neurons from all spinal levels were removed from postnatal day 12 to 20 Sprague Dawley rats and the nerve roots trimmed. Calcium- and magnesium-free (CMF) Hank's solution contained (in mM): 136.9 sodium chloride, 5.4 potassium chloride, 0.34 dibasic sodium orthophosphate, 0.44 monopotassium phosphate, 5.6 glucose, 5 4-(2-hydroxyethyl)-1-piperazineethanesulfonic acid, 0.005% phenol red, pH 7.4. CMF Hank's was used throughout the isolation and enzymatic treatments. The isolated ganglia were treated for 20 minutes at 37°C with 20 U/ml of papain (Worthington Biochemical, Lakewood, NJ) and 5 mM cysteine. The ganglia were then transferred to CMF Hank's with 3 mg/ml collagenase (type I; Worthington) and 4 mg/ml dispase (neutral type II; Roche Applied Science, Indianapolis, IN) for 20 minutes at 37°C. […]
Dorsal root ganglion neurons were loaded with 5 µM fura-2 AM and 0.02% pluronic acid in media at 37°C for 60 minutes. […] The MetaFluor imaging system (Universal Imaging Corporation) was used to record fluorescence at 340 and 380 nm excitation wavelengths. Background fluorescence, measured as the ratio 340/380 in a “cell-free” zone during the experiment, was subtracted from the data. […]

Chain of rat TRPA1 (rTRPA1) (Q6RI86 whole entry): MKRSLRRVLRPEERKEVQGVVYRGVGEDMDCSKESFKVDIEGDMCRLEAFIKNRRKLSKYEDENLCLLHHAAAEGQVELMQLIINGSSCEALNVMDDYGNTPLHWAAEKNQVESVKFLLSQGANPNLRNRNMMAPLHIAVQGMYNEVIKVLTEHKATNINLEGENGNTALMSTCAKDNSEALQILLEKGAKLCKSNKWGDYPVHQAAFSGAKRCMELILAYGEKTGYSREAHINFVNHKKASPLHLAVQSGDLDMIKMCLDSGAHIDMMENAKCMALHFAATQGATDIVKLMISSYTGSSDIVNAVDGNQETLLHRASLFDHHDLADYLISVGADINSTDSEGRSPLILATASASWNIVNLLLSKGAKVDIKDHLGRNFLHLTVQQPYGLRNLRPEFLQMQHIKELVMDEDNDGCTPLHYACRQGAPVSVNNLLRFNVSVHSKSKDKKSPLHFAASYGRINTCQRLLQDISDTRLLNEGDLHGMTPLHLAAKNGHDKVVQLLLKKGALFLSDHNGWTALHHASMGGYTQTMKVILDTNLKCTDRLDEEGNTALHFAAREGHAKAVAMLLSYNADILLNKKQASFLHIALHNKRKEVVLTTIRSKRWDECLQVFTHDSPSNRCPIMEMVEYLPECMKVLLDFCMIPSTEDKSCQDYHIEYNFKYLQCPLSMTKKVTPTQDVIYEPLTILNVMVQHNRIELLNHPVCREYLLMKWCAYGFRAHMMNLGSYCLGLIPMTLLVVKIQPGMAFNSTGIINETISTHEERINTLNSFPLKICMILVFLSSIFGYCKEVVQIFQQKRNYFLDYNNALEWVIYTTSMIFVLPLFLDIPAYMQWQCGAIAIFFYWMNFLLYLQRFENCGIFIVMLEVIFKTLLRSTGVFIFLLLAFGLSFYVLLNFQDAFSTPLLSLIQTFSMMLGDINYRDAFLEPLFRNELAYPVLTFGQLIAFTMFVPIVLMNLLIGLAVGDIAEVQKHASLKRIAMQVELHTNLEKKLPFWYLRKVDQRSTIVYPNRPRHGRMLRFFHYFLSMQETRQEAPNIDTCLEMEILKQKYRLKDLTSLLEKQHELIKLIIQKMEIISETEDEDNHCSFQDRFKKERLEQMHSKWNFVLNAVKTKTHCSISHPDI
T2 sequence (Q9EPK8 whole entry): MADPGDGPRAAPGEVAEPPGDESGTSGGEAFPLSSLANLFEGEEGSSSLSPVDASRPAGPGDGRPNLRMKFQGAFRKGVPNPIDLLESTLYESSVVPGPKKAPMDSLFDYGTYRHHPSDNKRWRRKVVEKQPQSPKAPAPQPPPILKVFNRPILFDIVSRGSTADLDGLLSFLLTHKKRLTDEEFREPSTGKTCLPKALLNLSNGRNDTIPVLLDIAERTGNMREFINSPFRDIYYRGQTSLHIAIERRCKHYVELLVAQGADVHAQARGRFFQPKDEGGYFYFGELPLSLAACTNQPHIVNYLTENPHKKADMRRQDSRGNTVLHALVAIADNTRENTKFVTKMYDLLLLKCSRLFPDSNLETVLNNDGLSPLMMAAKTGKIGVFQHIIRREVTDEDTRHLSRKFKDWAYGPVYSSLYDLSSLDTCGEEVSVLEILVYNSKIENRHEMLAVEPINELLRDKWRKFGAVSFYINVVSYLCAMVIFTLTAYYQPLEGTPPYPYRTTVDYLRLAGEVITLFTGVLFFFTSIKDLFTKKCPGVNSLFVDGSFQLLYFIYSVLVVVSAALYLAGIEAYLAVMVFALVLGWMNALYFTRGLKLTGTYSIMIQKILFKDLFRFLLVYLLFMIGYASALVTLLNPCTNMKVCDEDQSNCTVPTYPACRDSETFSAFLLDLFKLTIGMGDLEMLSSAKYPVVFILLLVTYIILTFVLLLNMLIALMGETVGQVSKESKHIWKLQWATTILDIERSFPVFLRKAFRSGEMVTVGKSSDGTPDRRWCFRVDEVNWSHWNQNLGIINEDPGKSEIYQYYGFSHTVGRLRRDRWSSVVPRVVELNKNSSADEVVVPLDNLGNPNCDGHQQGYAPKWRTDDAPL
T1 sequence (O35433 whole entry Y511A): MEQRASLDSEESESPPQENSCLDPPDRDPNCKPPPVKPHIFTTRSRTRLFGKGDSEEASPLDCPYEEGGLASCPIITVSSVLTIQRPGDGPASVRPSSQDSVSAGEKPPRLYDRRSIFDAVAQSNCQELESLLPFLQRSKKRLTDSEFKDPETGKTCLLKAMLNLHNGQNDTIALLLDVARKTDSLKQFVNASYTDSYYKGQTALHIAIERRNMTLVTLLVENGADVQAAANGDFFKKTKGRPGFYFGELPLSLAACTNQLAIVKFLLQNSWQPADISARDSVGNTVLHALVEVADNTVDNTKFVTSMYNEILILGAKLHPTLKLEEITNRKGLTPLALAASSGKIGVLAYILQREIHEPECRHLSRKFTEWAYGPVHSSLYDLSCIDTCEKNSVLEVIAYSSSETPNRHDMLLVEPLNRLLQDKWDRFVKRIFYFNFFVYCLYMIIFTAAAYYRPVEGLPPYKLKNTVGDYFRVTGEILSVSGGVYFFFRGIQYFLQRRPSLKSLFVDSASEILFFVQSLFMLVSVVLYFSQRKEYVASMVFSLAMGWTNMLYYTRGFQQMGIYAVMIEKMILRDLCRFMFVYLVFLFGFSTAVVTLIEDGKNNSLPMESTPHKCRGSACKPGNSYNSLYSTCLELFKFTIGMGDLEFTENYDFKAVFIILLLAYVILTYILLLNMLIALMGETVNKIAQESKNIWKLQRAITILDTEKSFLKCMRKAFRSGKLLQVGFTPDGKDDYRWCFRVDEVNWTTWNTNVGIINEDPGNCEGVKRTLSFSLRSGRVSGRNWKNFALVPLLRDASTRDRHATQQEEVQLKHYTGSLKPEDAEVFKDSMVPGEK

Consider `CC(C)=CCCC(C)=CC=O` [citral, 3,7-dimethyl-2,6-octadienal], for which the “Response of capsaicin-insensitive TRPV1 point mutant” value in series [1] was “remained responsive to citral”. Further, in series [2], the “Activation of CRC V2–V4 chimera currents” value is listed as “restored citral activation”. Further, the “Reversibility of citral inhibition of agonist-evoked current” value on rat TRPA1 (rTRPA1) (allyl isothiocyanate-evoked) was “rapidly reversed”; on mouse TRPV4 (mTRPV4) (4α-phorbol-12, 13-didecanoate-evoked), “rapidly reversed”. In addition, the “Effect of citral addition on agonist-induced current” value on rat TRPA1 (rTRPA1) (allyl isothiocyanate-induced, n = 10) was “not increased”; on mouse TRPV4 (mTRPV4) (4α-phorbol-12, 13-didecanoate-induced, n = 9), “not increased”. Moreover, the “TRPA1 current activation by allyl isothiocyanate recovered after citral washout” value at rat TRPA1 (rTRPA1) (at 30s, n = 5) is given as 60±16%. Further, at rat TRPA1 (rTRPA1) (citral activation, bell-shaped dose response, 2 mM external calcium), the Activation threshold entry is listed as “threshold ∼200 µM”. Moreover, the “Hill coefficient (inhibition)” value at rat TRPA1 (rTRPA1) (citral block of allyl isothiocyanate-evoked current) is listed as 1.0; at mouse TRPV4 (mTRPV4) (citral block of 4α-phorbol-12, 13-didecanoate-evoked current) it was 0.9. The “Agonist efficacy IAITC (300 µM)/Icitral (300 µM)” value at rat TRPA1 (rTRPA1) (fold larger, −100 mV, n = 27 and 9) was “IAITC (300 µM)/Icitral (300 µM) 1.5 fold larger (n = 27 and 9; −100 mV)”. For the same compound, the Kd at rat TRPA1 (rTRPA1) (read-out: Inhibition KD, app) worked out at 254 µM; at mouse TRPV4 (mTRPV4) (read-out: Inhibition KD, app), 32 µM. At rat TRPA1 (rTRPA1) (−100 mV), the “Increase of ITRPA1 above baseline” value was determined as 3.1±0.8 fold. Besides, the Agonist efficacy entry at mouse TRPV4 (mTRPV4) is “Ø”. For the same compound, the “log P (oil/water) coefficient” value in series [3] was “three”. Moreover, the “Neurons with increased internal calcium concentration among capsaicin-responsive neurons” value in series [4] is 12 of 35.
